Consider two compounds from US7495011B2 (priority 2003, dated 2009).

pEC50: −log10 of the molar value. A value given as a limit tells only on which side of the number the result lay.

In data set [1] the test system is SARS virus. In words: microbe, parasite or virus in culture. It is filed as cell-based, SARS-associated coronavirus. Particulars: Severe acute respiratory syndrome coronavirus, Vero, read-out: EC50 (concentration required to inhibit cytopathic effects by viral infection to 50% of the control value).
For data set [2], the system named is SARS virus. Particulars: background art; cited from earlier work.
The nature of the next data set: in vitro. Particulars: African green monkey.
For data set [3], the system named is SARS virus. It is filed as cell-based, SARS-associated coronavirus. Particulars: 10 μM, Vero cells, FIG. 1D.
Data set [4] relates to SARS virus. It is filed as cell-based, SARS-associated coronavirus. Particulars: 10 μM, FIG. 1E.
The test system of data set [5] is SARS virus. It is filed as cell-based, SARS-associated coronavirus. Particulars: 10 μM, FIG. 1B.

For `CC1(C)[C@@H](O[C@H]2O[C@H](C(=O)O)[C@@H](O)[C@H](O)[C@H]2O[C@@H]2O[C@H](C(=O)O)[C@@H](O)[C@H](O)[C@H]2O)CC[C@]2(C)[C@H]3C(=O)C=C4[C@@H]5C[C@@](C)(C(=O)O)CC[C@]5(C)CC[C@@]4(C)[C@]3(C)CC[C@@H]12` [Glycyrrhizin, glycyrrhizin], in the data set with SARS virus [1], the pEC50 is 3.44. Moreover, the “Efficacy against the SARS virus as reported in the literature” value with SARS virus [2] is “extremely limited potency”. The CC50 in the data set “in vitro” is more than 24300 µM.

Take `Cc1c(O)cccc1C(=O)N[C@@H](CSc1ccccc1)[C@H](O)CN1C[C@H]2CCCC[C@H]2C[C@H]1C(=O)NC(C)(C)C` [Nelfinavir, nelfinavir]: the “SARS virus infection by immunofluorescence antibody staining” value in the data set on SARS virus [3] is “advantageously controlled”. Besides, in the data set with SARS virus [1], the pEC50 is 7.32. For the same compound, the “RNA levels of the SARS virus in Vero cells (RT-PCR)” value in the data set with SARS virus [4] is “highly inhibitive against the propagation of the SARS virus”. The “Morphology of SARS virus-infected Vero cells” value in the data set on SARS virus [5] was “had the same morphology as normal cells”. For the same compound, the CC50 in the data set “in vitro” is 14.6 µM.
